From patent publication US20020016370A1 (priority 1998, published 2002)
Read-outs that look alike come from different tables or passages of the source.

Assays:
[1] = test system: mice; conditions: cited from earlier work
[2] = test system: male Swiss-Webster mice; assay: Locomotor depression test; format: in vivo, mouse
[3] = molecular target: hDAT (dopamine transporter) (Homo sapiens, UniProt Q01959); assay: [125]RTI-55 binding, HEK293 cell membranes; conditions: HEK-hDAT membranes
[4] = test system: vagotomized, pithed and artificially respired rats; assay: Pithed rat: plasma catecholamine responses to sympathetic nerve stimulation; format: in vivo; conditions: for change of plasma DA levels on sympathetic stimulation: from baseline
[5] = molecular target: hNET (norepinephrine transporter) (Homo sapiens, UniProt P23975); assay: [125]RTI-55 binding, HEK293 cell membranes; conditions: HEK-hNET membranes
[6] = test system: male Swiss-Webster mice; assay: Cocaine interaction study (locomotor activity); format: in vivo, mouse; conditions: 10 mg/kg ip plus cocaine 20 mg/kg, at 30 minutes
[7] = molecular target: T1, human α4β2 receptors (Homo sapiens, UniProt P17787+P43681); assay: Two-electrode voltage clamp, receptors expressed in Xenopus oocytes; format: cell-based
T1 construct: expressed in transfected cells; host or cells: Xenopus laevis oocytes injected with cRNA

[8] = test system: Sprague-Dawley derived rats; assay: Prevention of sensitized locomotor stimulant response to nicotine; format: in vivo, rat; conditions: pretreatment 7 days before nicotine; test on day 9
[9] = molecular target: T2, α1β1δε mouse muscle receptors (Mus musculus, UniProt P02716+P04756+P09690+P20782); assay: Selectivity test on muscle receptors in oocytes; format: cell-based
T2 sequence (P04756 21-457): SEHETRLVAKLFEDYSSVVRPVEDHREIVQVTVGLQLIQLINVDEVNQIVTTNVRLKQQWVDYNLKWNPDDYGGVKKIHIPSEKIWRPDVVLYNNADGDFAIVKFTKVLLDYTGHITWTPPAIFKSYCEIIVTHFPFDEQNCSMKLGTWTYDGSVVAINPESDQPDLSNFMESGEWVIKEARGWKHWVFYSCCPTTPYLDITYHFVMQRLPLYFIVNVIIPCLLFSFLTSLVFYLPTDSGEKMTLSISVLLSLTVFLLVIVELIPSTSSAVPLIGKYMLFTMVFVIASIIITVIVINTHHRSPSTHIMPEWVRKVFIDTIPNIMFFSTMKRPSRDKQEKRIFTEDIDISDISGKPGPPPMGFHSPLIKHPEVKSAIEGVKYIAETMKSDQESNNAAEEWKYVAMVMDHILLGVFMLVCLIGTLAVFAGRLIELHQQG
T2 sequence (P09690 24-501): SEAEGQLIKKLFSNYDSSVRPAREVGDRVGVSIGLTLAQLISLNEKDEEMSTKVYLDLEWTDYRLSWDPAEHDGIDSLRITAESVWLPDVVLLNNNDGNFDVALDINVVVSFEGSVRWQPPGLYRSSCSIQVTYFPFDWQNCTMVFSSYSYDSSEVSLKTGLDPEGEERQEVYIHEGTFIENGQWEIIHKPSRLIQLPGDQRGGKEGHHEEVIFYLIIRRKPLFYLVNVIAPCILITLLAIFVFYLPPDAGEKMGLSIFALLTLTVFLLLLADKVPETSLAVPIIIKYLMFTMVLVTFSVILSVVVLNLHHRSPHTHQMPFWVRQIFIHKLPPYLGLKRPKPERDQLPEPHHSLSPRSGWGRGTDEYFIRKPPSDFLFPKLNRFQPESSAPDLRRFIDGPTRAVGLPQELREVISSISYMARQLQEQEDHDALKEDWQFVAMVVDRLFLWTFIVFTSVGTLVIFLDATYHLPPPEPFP
T2 sequence (P02716 25-520): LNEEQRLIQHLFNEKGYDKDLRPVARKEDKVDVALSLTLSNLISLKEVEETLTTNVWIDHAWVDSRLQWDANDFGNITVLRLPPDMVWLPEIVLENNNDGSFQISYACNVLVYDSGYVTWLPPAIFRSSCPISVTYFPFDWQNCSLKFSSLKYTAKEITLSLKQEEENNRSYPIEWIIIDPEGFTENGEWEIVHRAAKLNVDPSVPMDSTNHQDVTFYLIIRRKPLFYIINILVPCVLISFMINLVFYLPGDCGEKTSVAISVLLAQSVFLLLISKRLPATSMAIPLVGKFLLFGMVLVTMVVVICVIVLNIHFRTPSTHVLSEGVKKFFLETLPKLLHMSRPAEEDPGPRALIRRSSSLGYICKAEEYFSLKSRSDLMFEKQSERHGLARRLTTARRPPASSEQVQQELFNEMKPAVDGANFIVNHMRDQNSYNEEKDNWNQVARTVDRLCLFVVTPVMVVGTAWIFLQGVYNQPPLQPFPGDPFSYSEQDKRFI
T2 sequence (P20782 21-493): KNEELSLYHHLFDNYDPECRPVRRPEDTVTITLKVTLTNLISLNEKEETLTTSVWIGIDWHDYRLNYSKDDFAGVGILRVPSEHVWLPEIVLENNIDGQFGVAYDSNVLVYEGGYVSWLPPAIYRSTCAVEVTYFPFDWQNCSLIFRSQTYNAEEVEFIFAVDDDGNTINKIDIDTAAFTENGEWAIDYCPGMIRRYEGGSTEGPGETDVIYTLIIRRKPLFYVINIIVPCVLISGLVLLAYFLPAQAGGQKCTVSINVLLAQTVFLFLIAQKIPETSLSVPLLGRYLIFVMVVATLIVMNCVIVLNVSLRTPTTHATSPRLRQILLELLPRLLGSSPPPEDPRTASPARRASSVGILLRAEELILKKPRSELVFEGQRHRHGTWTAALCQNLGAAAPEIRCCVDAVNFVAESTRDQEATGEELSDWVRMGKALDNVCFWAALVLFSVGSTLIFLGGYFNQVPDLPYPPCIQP
Experimental: For electrophysiology, oocyte recordings were made with an oocyte amplifier (e.g., Warner Instruments, Hamden, Conn., No. OC-725C) and recording chamber. […] A Mariotte flask filled with Ringer's solution was used to maintain a constant hydrostatic pressure for drug delivery and washes. Drugs were diluted in perfusion solution and loaded into a 2 ml loop at the terminus of the perfusion line. A bypass of the drug-loading loop allowed bath solution to flow continuously while the drug loop was loaded. The drug application was synchronized with data acquisition by using a 2-way electronic valve. […] Voltage electrodes were filled with 3M KCl and have resistances of 1-3MΩ. Oocytes with resting membrane potentials more positive than -30 mV were not used. […] All drug applications were separated by at least a 5 min wash period, longer if there is persisting drug effect. At the start of recording, all oocytes received two initial control applications of ACh. The second application of control ACh minimized the effects of rundown that occasionally occur after an initial ACh response. The second application of ACh also was used to normalize for the level of channel expression in each oocyte. To determine residual inhibitory effects, application of ACh with inhibitor or inhibitor alone was followed by another application of ACh alone and compared to the pre-application control ACh response. […]

[10] = molecular target: T3, human α7 receptors (Homo sapiens, UniProt P36544); assay: Two-electrode voltage clamp, receptors expressed in Xenopus oocytes; format: cell-based
T3 construct: expressed in transfected cells; host or cells: Xenopus laevis oocytes injected with cRNA
T3 sequence (P36544 23-502): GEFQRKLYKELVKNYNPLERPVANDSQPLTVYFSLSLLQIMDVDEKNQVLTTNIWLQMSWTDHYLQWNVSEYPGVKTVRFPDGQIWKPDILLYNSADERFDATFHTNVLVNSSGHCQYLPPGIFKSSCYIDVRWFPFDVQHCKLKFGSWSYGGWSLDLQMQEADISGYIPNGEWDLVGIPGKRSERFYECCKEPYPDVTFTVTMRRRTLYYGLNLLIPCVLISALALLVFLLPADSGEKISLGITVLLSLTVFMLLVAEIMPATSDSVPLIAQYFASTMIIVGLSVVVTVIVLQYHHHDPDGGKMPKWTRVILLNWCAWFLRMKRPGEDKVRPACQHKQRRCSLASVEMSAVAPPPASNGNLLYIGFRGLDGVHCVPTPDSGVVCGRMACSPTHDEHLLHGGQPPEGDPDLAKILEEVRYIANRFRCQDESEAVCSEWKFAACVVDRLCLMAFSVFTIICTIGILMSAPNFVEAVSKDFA

[11] = test system: vagotomized, pithed and artificially respired rats; assay: Pithed rat: cardiovascular responses to sympathetic nerve stimulation; format: in vivo; conditions: for increases in heart rate (δ HR): 2.2 Hz, highest dose, versus saline; for stimulation-induced increases in MAP: stimulation at 0.8 and 2.2 Hz, i.v. bolus
[12] = molecular target: T4, human α3β4 receptors (Homo sapiens, UniProt P30926+P32297); assay: Two-electrode voltage clamp, receptors expressed in Xenopus oocytes; format: cell-based
T4 construct: expressed in transfected cells; host or cells: Xenopus laevis oocytes injected with cRNA
T4 sequence (P32297 32-505): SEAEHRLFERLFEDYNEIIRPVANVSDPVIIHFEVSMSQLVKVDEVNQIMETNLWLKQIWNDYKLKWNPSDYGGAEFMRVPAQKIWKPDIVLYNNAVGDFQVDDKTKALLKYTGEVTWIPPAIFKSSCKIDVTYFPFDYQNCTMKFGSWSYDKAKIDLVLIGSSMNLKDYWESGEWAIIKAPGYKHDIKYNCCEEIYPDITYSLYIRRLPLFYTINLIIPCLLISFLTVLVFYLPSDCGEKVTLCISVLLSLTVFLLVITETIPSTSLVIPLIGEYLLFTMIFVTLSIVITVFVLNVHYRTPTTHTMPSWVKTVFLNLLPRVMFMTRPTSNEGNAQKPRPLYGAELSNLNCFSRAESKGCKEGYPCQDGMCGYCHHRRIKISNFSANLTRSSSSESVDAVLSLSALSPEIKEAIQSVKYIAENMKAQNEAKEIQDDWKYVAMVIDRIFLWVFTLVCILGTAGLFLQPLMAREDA
T4 sequence (P30926 22-498): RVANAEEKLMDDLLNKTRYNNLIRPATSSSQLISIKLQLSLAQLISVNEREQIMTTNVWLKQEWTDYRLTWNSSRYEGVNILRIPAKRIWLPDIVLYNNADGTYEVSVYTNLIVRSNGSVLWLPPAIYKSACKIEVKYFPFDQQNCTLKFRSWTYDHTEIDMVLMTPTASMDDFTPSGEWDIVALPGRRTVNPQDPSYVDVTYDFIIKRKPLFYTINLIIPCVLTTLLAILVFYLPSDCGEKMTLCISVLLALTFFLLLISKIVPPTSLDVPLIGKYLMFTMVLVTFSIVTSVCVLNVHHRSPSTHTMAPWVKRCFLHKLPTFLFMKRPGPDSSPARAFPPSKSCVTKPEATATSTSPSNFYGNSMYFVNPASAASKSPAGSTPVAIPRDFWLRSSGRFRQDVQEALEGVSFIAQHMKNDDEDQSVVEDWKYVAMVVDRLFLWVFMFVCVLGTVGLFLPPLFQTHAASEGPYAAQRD

[13] = molecular target: hSERT (serotonin transporter) (Homo sapiens, UniProt P31645); assay: [125]RTI-55 binding, HEK293 cell membranes; conditions: HEK-hSERT membranes
[14] = molecular target: T5, human α3β2 receptors (Homo sapiens, UniProt P17787+P32297); assay: Two-electrode voltage clamp, receptors expressed in Xenopus oocytes; format: cell-based; conditions: β2-containing receptors
T5 construct: expressed in transfected cells; host or cells: Xenopus laevis oocytes injected with cRNA

[15] = test system: Male Sprague-Dawley rats; assay: Mecamylamine blockade of nicotine-induced seizures; format: in vivo, rat
[16] = test system: TS patients; conditions: Tourette's syndrome; cited from earlier work
[17] = test system: Male Sprague-Dawley rats; assay: Effects of mecamylamine alone at high dose (seizures, spontaneous locomotor activity); format: in vivo, rat; conditions: 10 mg/kg s.c.
[18] = test system: nicotine receptors; assay: Oocyte recovery time course and agonist tests, receptor subtype not specified; format: cell-based
[19] = molecular target: T6, NMDA receptor subunits NR1 and NR2b (Homo sapiens, UniProt Q05586+Q13224); assay: Oocytes coexpressing NMDA receptor subunits; format: cell-based; conditions: 100 μM
T6 construct: expressed in transfected cells; host or cells: Xenopus oocytes
T6 sequence (Q13224 27-1484, other chains not shown): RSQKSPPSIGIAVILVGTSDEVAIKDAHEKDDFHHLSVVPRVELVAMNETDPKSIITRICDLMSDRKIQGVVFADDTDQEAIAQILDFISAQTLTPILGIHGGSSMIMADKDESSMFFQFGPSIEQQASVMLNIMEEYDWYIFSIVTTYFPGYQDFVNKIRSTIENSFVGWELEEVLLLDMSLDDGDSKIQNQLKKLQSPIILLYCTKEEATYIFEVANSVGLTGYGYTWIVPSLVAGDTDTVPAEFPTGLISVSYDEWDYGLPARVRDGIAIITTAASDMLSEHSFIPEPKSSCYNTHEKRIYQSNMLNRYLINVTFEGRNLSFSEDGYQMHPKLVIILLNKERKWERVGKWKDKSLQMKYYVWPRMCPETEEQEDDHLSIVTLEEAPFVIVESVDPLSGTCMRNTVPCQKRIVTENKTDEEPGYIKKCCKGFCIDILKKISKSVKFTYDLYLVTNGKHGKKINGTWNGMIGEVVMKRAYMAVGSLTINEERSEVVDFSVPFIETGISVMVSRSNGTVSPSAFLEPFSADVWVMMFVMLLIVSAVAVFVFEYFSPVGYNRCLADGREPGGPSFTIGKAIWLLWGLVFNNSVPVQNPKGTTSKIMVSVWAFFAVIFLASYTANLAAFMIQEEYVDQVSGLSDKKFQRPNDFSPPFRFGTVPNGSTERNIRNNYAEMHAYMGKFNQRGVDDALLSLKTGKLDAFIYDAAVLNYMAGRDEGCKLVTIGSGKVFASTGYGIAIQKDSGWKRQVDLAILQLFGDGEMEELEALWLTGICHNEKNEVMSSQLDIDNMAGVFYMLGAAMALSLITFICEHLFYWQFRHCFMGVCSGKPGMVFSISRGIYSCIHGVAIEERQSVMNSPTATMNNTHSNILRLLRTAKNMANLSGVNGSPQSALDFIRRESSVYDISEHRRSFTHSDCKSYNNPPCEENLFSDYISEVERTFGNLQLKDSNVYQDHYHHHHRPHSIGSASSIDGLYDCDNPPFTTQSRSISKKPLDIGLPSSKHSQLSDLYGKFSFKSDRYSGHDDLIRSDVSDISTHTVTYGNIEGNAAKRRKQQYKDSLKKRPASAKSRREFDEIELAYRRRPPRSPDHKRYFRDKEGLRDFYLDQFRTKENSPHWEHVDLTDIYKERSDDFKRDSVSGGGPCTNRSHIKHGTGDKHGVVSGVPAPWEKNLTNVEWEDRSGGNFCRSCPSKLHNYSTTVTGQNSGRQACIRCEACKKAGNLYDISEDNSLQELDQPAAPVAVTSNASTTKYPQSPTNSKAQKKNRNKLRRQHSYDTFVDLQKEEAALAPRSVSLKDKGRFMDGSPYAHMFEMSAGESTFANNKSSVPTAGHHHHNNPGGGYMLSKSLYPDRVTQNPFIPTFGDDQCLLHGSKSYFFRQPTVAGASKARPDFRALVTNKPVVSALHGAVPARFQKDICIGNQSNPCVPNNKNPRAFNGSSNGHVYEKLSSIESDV
Excerpt: NR1 is ubiquitous in the brain and produces robust functional responses when coexpressed with the NR2b subunit and activated by glutamate and the coagonist glycine. NR2b in vivo is selectively present in the forebrain with high levels of expression in the cerebral cortex and hippocampus, as well as the septum, caudate putamen and olfactory bulb, making the combination of NR2b and NR1 relevant for both cognitive and motor functions in the CNS.

[20] = molecular target: T2, α1β1δε mouse muscle receptors; conditions: stated as a finding in the discussion; cited from earlier work
[21] = test system: rats; conditions: mecamylamine 0.1-1 mg/day, ip; cited from earlier work

## CO[C@H]1CC=C2CCN3CCC4=C(CC(=O)OC4)[C@]23C1 [dihydro-beta-erythroidine]
[1]; systemic administration
  effect against psychostimulant-induced stereotypy in naive animals: ineffective

## CN1[C@@H]2CC[C@H]1C[C@@H](OC(=O)C(CO)c1ccccc1)C2 (some centres unmarked) [atropine]
[1]; mouse, in vivo
  effect against psychostimulant-induced stereotypy in naive animals: ineffective

## CN[C@]1(C)[C@H]2CC[C@H](C2)C1(C)C [exo-R-mecamylamine]
[2]; 10 mg/kg ip, last 30 minutes of testing
  stimulant effects: evident
[2]; ip, 20 min before testing, maximal depression is 0 counts in 30 minutes
  dose producing one half of the maximal depressant activity: 9.3 mg/kg
[3]
  affinity compared to cocaine: lower than the affinity of cocaine
[4]; 2.2 Hz
  stimulation-induced increases in plasma NE levels versus saline: significantly less
  change of plasma DA levels on sympathetic stimulation: significant increases in plasma DA levels
[5]
  affinity compared to cocaine: lower than the affinity of cocaine
[6]
  locomotion versus cocaine alone: significantly lower
[7]; 5 μM, −40 mV or 90 mV
  voltage dependence of inhibition / off rate: significant voltage effects
[7]; β2-containing receptors
  residual inhibition, compared across receptors: greatest
[8]
  effectiveness compared between isomers, particularly center distance and vertical activity: generally more effective at lower doses
[9]
  effect on muscle receptors: very little effect
  inhibition of muscle receptors after a 5-min wash: fully reversed
[10]
  potency of inhibition, comparing the IC50 values across receptors: least potent
  residual inhibition, compared across receptors: least
[11]
  increases in heart rate (δ HR): significantly lowered the increases in heart rate
  stimulation-induced increases in MAP: completely abolished
[12]
  subsequent control response to ACh 5 min after exposure (residual inhibition): marked decrease
[12]; no further recovery afterwards
  fast phase of recovery, average duration: 12 min
[13]
  affinity compared to cocaine: lower than the affinity of cocaine
[14]
  residual inhibition, compared across receptors: greatest
[15]; 0.1 mg/kg s.c.
  duration and severity of seizure versus saline (FIG. 6C): did not differ from their saline comparison group

## O=C(CCCN1CCC(O)(c2ccc(Cl)cc2)CC1)c1ccc(F)cc1 [haloperidol]
[16]
  cases in which effective: about 70%

## Clc1cccc(Cl)c1N=C1NCCN1 [clonidine]
[16]
  success rate for motor and vocal tics: 40%

## CN[C@@]1(C)[C@@H]2CC[C@@H](C2)C1(C)C [exo-S-mecamylamine]
[4]; 2.2 Hz
  stimulation-induced increases in plasma NE levels versus saline: significantly decreased stimulation-evoked plasma NE increases
  stimulation-induced plasma EPI responses: significant decrease
  change of plasma DA levels on sympathetic stimulation: not
[4]; among the three forms
  overall effectiveness on plasma CA and sympathetically-mediated cardiovascular responses: the most effective in reducing plasma CA
[17]
  locomotor depressant effects compared to exo-R-mecamylamine: significantly less locomotor depressant effects
[11]
  increases in heart rate (δ HR): significantly lowered the increases in heart rate
  stimulation-induced increases in MAP: completely abolished
[18]; co-application of 10 μM and ACh at the control concentration
  initial inhibition: greater than 50%
[18]; recovery time course
  off-loading from some receptors compared to exo-R-mecamylamine: more slowly
[19]
  inhibition of response to 10 μM glutamate+10 μM glycine: transient inhibition
  reversibility after a 5-min wash: reversible
[20]
  inhibitory effect at nAChR muscle receptors compared to exo-R-mecamylamine: less inhibitory effect
[15]; 0.1 mg/kg s.c.
  duration and severity of seizure versus saline (FIG. 6C): significantly different from their saline comparison groups
  seizure latency versus saline comparison groups: significantly longer seizure latency
[15]; lowest dose 0.1 mg/kg
  number of rats with nicotine-seizures compared to exo-R-mecamylamine: fewer rats had nicotine-seizures

## C[N+](C)(C)CCCCCC[N+](C)(C)C [hexamethonium]
[21]
  block of nicotine-induced locomotor hyperactivity and tail tremor: not
